Test results from US12458680B2, “Reconstitutable teverelix-TFA composition” (Antev Limited, priority 2018, dated 2025).
Square brackets hold non-standard residues; d marks the D form. Peptide text beside a SMILES is read from it. dPhe(4-Cl) = N[C@H](Cc1ccc(Cl)cc1)C(=O)O; d2Nal = N[C@H](Cc1ccc2ccccc2c1)C(=O)O; d(hCit) = NC(=O)NCCCC[C@@H](N)C(=O)O; Lys(iPr) = CC(C)NCCCC[C@H](N)C(=O)O; d3Pal = N[C@H](Cc1cccnc1)C(=O)O

What was measured:
[1] = Injection site reaction after subcutaneous and/or intramuscular injection; assay type: in vivo; conditions: 30-100 mg/ml, 0.4-1.6 ml
[2] = Plasma concentration of teverelix in patients versus weight; assay type: in vivo; conditions: different patients

CC(=O)N[C@H](Cc1ccc2ccccc2c1)C(=O)N[C@H](Cc1ccc(Cl)cc1)C(=O)N[C@H](Cc1cccnc1)C(=O)N[C@@H](CO)C(=O)N[C@@H](Cc1ccc(O)cc1)C(=O)N[C@H](CCCCNC(N)=O)C(=O)N[C@@H](CC(C)C)C(=O)N[C@@H](CCCCNC(C)C)C(=O)N1CCC[C@H]1C(=O)N[C@H](C)C(N)=O [teverelix, Ac-D-Nal-D-pClPhe-D-Pal-Ser-Tyr-D-Hci-Leu-Lys (iPr)-Pro-D-Ala-NH2] (Ac-[d2Nal][dPhe(4-Cl)][d3Pal]SY[d(hCit)]L[Lys(iPr)]P[dA]-NH2)
injection site reaction [1]: mild injection site reaction | dependence of plasma concentration of teverelix on patients weight [2]: substantially independent of the patients weight
